In US20220332764A1, “T CELL EPITOPES OF HCMV AND USES OF THEREOF” (EBERHARD KARLS UNIVERSITÄT TÜBINGEN, priority 2019, published 2022):
Several values for one entry are separate records, joined by “and”; a condition that tells them apart may be missing. Equal entries are not always repeated.

Columns and labels:
[1] = test system: PBMCs of healthy HCMV-seropositive donors; experiment: ex vivo IFNγ ELISpot without prestimulation; type: cell-based, human; details: for % Positive donors (ex vivo): IFNγ ELISpot ex vivo, donors previously tested positive
Text: (§1) PHA was used as positive control.

[2] = test system: CD8+ / CD4+ T cells of donor PBMCs; experiment: Intracellular cytokine staining (ICS; IFNγ, TNFα, CD107a); type: cell-based, human; details: for Intracellular cytokine staining: responding T-cell subset after peptide stimulation
Text: PHA was used as positive control. […] (Cytofix/Cytoperm, BD Biosciences).

[3] = test system: CD8+ T cells of HLA-matched healthy donors; details: for Tetramer-staining: after 12 day amplification
[4] = test system: PBMCs of healthy HCMV-seropositive donors; experiment: IFNγ ELISpot after 12 day stimulation (memory T-cell response); type: cell-based, human; details: for % Positive donors (after 12 days of stimulation): IFNγ ELISpot, HLA-matched seropositive donors; for Positive donors as tested: positive / tested HLA-matched seropositive donors, positive: >10 spots/well and at least 3-fold negative control
Text: as §1

Sequence	% Positive donors (after 12 days of stimulation) [4] [%]	Positive donors as tested [4]	further results
RTDPATLTAY (listed as Human cytomegalovirus) [SEQ ID NO: 53]	82.6	19/23	% Positive donors (ex vivo) [1]: 66.7%; ELISpot response rate (ex vivo) ([1]; Tested HLA A*01:01, donors positively tested in ELISpots with 12d stimulation): 66.7; Intracellular staining ([2]; Tested HLA A*01:01, responding T-cell subset): CD8; Intracellular cytokine staining [2]: CD8; Tetramer staining ([3]; Tested HLA A*01:01): positive; Tetramer-staining [3]: Positive; ELISpot response rate (12 d stim.) ([4]; Tested HLA A*01:01, 12-day amplification with IL-2 in vitro): 82.6
KLGGALQAK (listed as Human cytomegalovirus) [SEQ ID NO: 70]	40.0	6/15	
APYLRDTL (listed as Human cytomegalovirus) [SEQ ID NO: 39]	5.3	1/19	
GLLAHIPALGV (listed as Human cytomegalovirus) [SEQ ID NO: 8]	27.3	6/22	% Positive donors (ex vivo) [1]: 0.0%
RLQPNVPLV (listed as Human cytomegalovirus) [SEQ ID NO: 7]	33.3	6/18	% Positive donors (ex vivo) [1]: 0.0%
KLGYRPHAK (listed as Human cytomegalovirus) [SEQ ID NO: 71]	37.9	11/29	Intracellular cytokine staining [2]: CD8; Tetramer-staining [3]: Positive
TLINGVWVV (listed as Human cytomegalovirus) [SEQ ID NO: 12]		2/11	
GVSSVTLLK (listed as Human cytomegalovirus) [SEQ ID NO: 73]	35.7	5/14	
MPVTHPPEV (listed as Human cytomegalovirus) [SEQ ID NO: 95]	13.3	2/15	
FFPKLQGNY (listed as Human cytomegalovirus) [SEQ ID NO: 23]	16.7	2/12	
IPDYRSVSL (listed as Human cytomegalovirus) [SEQ ID NO: 34]	22.2	4/18	
YTSRGALYLY (listed as Human cytomegalovirus) [SEQ ID NO: 58]	21.4	3/14	
EEQDYRALL (listed as Human cytomegalovirus) [SEQ ID NO: 44]	33.3	4/12	
IPVERQAL (listed as Human cytomegalovirus) [SEQ ID NO: 36]	16.7	2/12	
VTDPEHLMM (listed as Human cytomegalovirus) [SEQ ID NO: 64]	14.3	2/14	
FTDNVRFSV (listed as Human cytomegalovirus) [SEQ ID NO: 17]	7.8	1/13	
TILDKILNV (listed as Human cytomegalovirus) [SEQ ID NO: 11]	20.0	4/20	
ALSPSTSKV (listed as Human cytomegalovirus) [SEQ ID NO: 9]	23.5	4/17	
RVYAYDTREK (listed as Human cytomegalovirus) [SEQ ID NO: 72]	36.4	4/11	
LPYLSAERTV (listed as Human cytomegalovirus) [SEQ ID NO: 97]	6.7	1/15	
SLFYRAVAL (listed as Human cytomegalovirus) [SEQ ID NO: 98]		5/13 and 4/22	% Positive donors (ex vivo) [1]: 12.5%; Binding to more than one HLA-I allotype ([4]; stimulated T cells of different donors harboring either of two well predicted alleles): potentially able to bind to more than one HLA-I allotype
AEPNFPKNVW (listed as Human cytomegalovirus) [SEQ ID NO: 46]	14.3	2/14	
NYNEQHYRY (listed as Human cytomegalovirus) [SEQ ID NO: 20]		5/13	
ALLGRLYFI (listed as Human cytomegalovirus) [SEQ ID NO: 19]	6.7	1/15	
SLYEANPEL (listed as Human cytomegalovirus) [SEQ ID NO: 10]	23.5	4/17	

Sequence	% Positive donors (after 12 days of stimulation) [4] [%]	Positive donors as tested [4]	further results
LENGVTHRF (listed as Human cytomegalovirus) [SEQ ID NO: 49]	7.1	1/14	
ISENGNLQVTY (listed as Human cytomegalovirus) [SEQ ID NO: 63]	15.0	3/20	
TPLLKRLPL (listed as Human cytomegalovirus) [SEQ ID NO: 82]	28.6	4/14	
SLDRFIVQY (listed as Human cytomegalovirus) [SEQ ID NO: 57]	35.7	5/14	Intracellular cytokine staining [2]: CD4
QLRSVIRAL (listed as Human cytomegalovirus) [SEQ ID NO: 85]	14.3	2/14	
LLDELGAVFGY (listed as Human cytomegalovirus) [SEQ ID NO: 62]	15.4	2/13	
SVRLPYMYK (listed as Human cytomegalovirus) [SEQ ID NO: 75]	25.0	4/16	
RSALGPFVGK (listed as Human cytomegalovirus) [SEQ ID NO: 69]	40.0	6/15	Intracellular cytokine staining [2]: CD8; Tetramer-staining [3]: Positive
FVEGPGFMRY (listed as Human cytomegalovirus) [SEQ ID NO: 56]	35.7	5/14	
SFFPKLQGNY (listed as Human cytomegalovirus) [SEQ ID NO: 22]	22.2	2/9	
HLKLRPATF (listed as Human cytomegalovirus) [SEQ ID NO: 83]	23.1	3/13	
TSETHFGNY (listed as Human cytomegalovirus) [SEQ ID NO: 59]	20.0	3/15	
SPHPPTSVFL (listed as Human cytomegalovirus) [SEQ ID NO: 33]	25.0	3/12	
RTFAGTLSR (listed as Human cytomegalovirus) [SEQ ID NO: 76]	21.4	3/14	
MLRLLFTL (listed as Human cytomegalovirus) [SEQ ID NO: 86]	7.1	1/14	
GLDQYLESV (listed as Human cytomegalovirus) [SEQ ID NO: 18]	7.8	1/13	
IPPPQIPFV (listed as Human cytomegalovirus) [SEQ ID NO: 90]	40.0	6/15	
RSVRLPYMYK (listed as Human cytomegalovirus) [SEQ ID NO: 78]	13.3	2/15	
ALYPEYIYTV (listed as Human cytomegalovirus) [SEQ ID NO: 14]	16.7	3/18	
GSDALPAGLY (listed as Human cytomegalovirus) [SEQ ID NO: 60]	18.8	3/16	
SESLVAKRY (listed as Human cytomegalovirus) [SEQ ID NO: 48]	10.0	1/10	
EEATALGREL (listed as Human cytomegalovirus) [SEQ ID NO: 47]	10.0	1/10	
RPFPSTHQL (listed as Human cytomegalovirus) [SEQ ID NO: 31]	30.8	4/13	% Positive donors (ex vivo) [1]: 0.0%
IPMTFVDRDSL (listed as Human cytomegalovirus) [SEQ ID NO: 30]	35.7	5/14	
